Laboratory results as given in patent US8771665B2 (Cocrystal Discovery, Inc., priority 2010, dated 2014).

Experiments:
HCV1b replicon = assay: HCV Replicon Assay and EC50 Determination (Huh-7 cells, luciferase reporter); assay type: cell-based; conditions: Hepatitis C virus; Huh-7 cell line with HCV1b replicon containing luciferase reporter, 72 hr, triplicate assays
Description: HCV Replicon Assay and EC50 Determination
The antiviral activity of compounds against hepatitis C virus was determined by a hepatitis C virus replicon reporter cell line developed by Bartenschlager (Lohmann et al., Science 1999, 285:110-113). This cell-based assay utilized a liver cell carcinoma (Huh-7) cell line stably transformed with an HCV1b replicon containing a luciferase reporter gene. Varied concentrations of compounds were added to the reporter cell line, and further incubated at 37° C. for 72 hr in DMEM supplemented with 10% FCS. The inhibitory effects of experimental compounds or the reference compound, interferon alpha (INFα), on HCV replication were measured by luciferase activity using the Britelite™ plus luminescence reporter gene kit (Perkin Elmer, Shelton, Conn.). The Britelite plus reagent was added to the 96-well plates containing the HCV reporter cells, and luminescence was measured within 15 min using a Wallac 1450 Microbeta® Trilux liquid scintillation counter. EC50 values were calculated using GraFit 6 and GraphPad Prism 5 from triplicate HCV replicon assays.

[1] = molecular target: T1, HCV1b NS5B polymerase delta 21 (Hepatitis C virus genotype 1b, UniProt P26663); assay: RNA-Dependent RNA HCV NS5B (Polymerase) Assay and IC50 Determination; assay type: biochemical
T1 construct: purified HCV1b NS5B polymerase delta 21
Procedure, shortened: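 Purified NS5B Δ21 (0.6 μg) with polyA:U16 template, 10 μM UTP plus α-32P UTP in Tris-HCl pH 7.5, 5 mM MgCl2, 0.5% Triton X-100, 60 min at 23°C with varied compound concentrations. Radiolabelled RNA captured on filters, quantified by phosphorimaging; IC50 from triplicate assays.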

T1 sequence (P26663 2420-2989): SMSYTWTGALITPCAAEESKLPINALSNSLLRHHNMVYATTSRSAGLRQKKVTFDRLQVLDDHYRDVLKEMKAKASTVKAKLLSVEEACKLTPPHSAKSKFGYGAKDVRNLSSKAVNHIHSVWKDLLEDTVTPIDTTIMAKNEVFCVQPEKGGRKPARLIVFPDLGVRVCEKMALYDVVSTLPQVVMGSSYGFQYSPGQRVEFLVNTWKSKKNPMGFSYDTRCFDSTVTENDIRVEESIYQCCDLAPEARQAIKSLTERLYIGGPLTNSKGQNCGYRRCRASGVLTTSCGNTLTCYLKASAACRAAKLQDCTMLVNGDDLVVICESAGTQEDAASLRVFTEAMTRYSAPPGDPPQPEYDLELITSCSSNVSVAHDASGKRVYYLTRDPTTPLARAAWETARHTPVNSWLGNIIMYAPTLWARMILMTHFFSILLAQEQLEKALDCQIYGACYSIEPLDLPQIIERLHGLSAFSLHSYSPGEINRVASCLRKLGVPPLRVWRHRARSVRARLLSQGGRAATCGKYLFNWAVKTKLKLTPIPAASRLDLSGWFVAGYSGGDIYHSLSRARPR

With `CC1CCC(C2=C(c3cc(-c4ccccc4)sc3C(=O)O)CCN(C)C2)CC1` (stereo not drawn) [Example 001, 3-[1-Methyl-5-(4-methyl-cyclohexyl)-1,2,3,6-tetrahydro-pyridin-4-yl]-5-phenyl-thiophene-2-carboxylic acid] the EC50 (HCV1b replicon) was < 3 µM and the IC50 [1] was < 3 µM.
For `CC1CCC(C2=C(c3cc(C#CC(C)(C)C)sc3C(=O)O)CCN(C)C2)CC1` (stereo not drawn) [Example 003, 5-(3,3-Dimethyl-but-1-ynyl)-3-[1-methyl-5-(4-methyl-cyclohexyl)-1,2,3,6-tetrahydro-pyridin-4-yl]-thiophene-2-carboxylic acid], the EC50 (HCV1b replicon) was < 3 µM and the IC50 [1] was < 3 µM.
In the case of `CC1CCC(C2=C(c3cc(-c4ccc(NC(=O)c5cscn5)cc4)sc3C(=O)O)CCN(C)C2)CC1` (stereo not drawn) [Example 013, 3-[1-Methyl-5-(4-methyl-cyclohexyl)-1,2,3,6-tetrahydro-pyridin-4-yl]-5-{4-[(thiazole-4-carbonyl)-amino]-phenyl}-thiophene-2-carboxylic acid], the EC50 (HCV1b replicon) is reported as < 3 µM and the IC50 [1] is reported as < 3 µM.
For `CC1CCC(C2=C(c3cc(-c4ccc(-c5cc6ncccn6n5)cc4)sc3C(=O)O)CCN(C)C2)CC1` (stereo not drawn) [Example 005, 3-[1-Methyl-5-(4-methyl-cyclohexyl)-1,2,3,6-tetrahydro-pyridin-4-yl]-5-(4-pyrazolo[1,5-a]pyrimidin-2-yl-phenyl)-thiophene-2-carboxylic acid], the EC50 (HCV1b replicon) was < 3 µM and the IC50 [1] was < 3 µM.
In the case of `CC1CC=C(C2=C(c3cc(-c4ccccc4)sc3C(=O)O)CCN(C)C2)CC1` (stereo not drawn) [Example 109, 3-[1-Methyl-5-(4-methyl-cyclohex-1-enyl)-1,2,3,6-tetrahydro-pyridin-4-yl]-5-phenyl-thiophene-2-carboxylic acid], the EC50 (HCV1b replicon) is reported as > 10 µM and the IC50 [1] is reported as < 3 µM.
With `Cc1cc(C)n2nc(CN3CCC(c4cc(-c5ccc(NC(=O)c6cscn6)cc5)sc4C(=O)O)=C(C4CCC(C)CC4)C3)nc2n1` (stereo not drawn) [Example 130, 3-[1-(5,7-Dimethyl-[1,2,4]triazolo[1,5-a]pyrimidin-2-ylmethyl)-5-(4-methyl-cyclohexyl)-1,2,3,6-tetrahydro-pyridin-4-yl]-5-{4-[(thiazole-4-carbonyl)-amino]-phenyl}-thiophene-2-carboxylic acid] the EC50 (HCV1b replicon) was < 3 µM and the IC50 [1] was < 3 µM.
For `CC1CCC(C2=C(c3cc(-c4ccc(NC(=O)c5cscn5)cc4F)sc3C(=O)O)CCN(C)C2)CC1` (stereo not drawn) [Example 060, 5-{2-Fluoro-4-[(thiazole-4-carbonyl)-amino]-phenyl}-3-[1-methyl-5-(4-methyl-cyclohexyl)-1,2,3,6-tetrahydro-pyridin-4-yl]-thiophene-2-carboxylic acid], the IC50 [1] was < 3 µM.
For `CC1CCC(C2=C(c3cc(-c4ccccc4)sc3C(=O)O)CCN(Cc3cncnc3)C2)CC1` (stereo not drawn) [Example 157, 3-[5-(4-Methyl-cyclohexyl)-1-pyrimidin-5-ylmethyl-1,2,3,6-tetrahydro-pyridin-4-yl]-5-phenyl-thiophene-2-carboxylic acid], the IC50 [1] was > 10 µM.
Work on `CC1CCC(C2=C(c3cc(-c4ccccc4)sc3C(=O)O)CCN(Cc3ccc(Br)cn3)C2)CC1` (stereo not drawn) [Example 149, 3-[1-(5-Bromo-pyridin-2-ylmethyl)-5-(4-methyl-cyclohexyl)-1,2,3,6-tetrahydro-pyridin-4-yl]-5-phenyl-thiophene-2-carboxylic acid] yielded an IC50 [1] of 3 to 10 µM.
`CC1CCC(C2=C(c3cc(-c4ccccc4)sc3C(=O)O)CCN(CC(=O)O)C2)CC1` (stereo not drawn) [Example 082, 3-[1-Carboxymethyl-5-(4-methyl-cyclohexyl)-1,2,3,6-tetrahydro-pyridin-4-yl]-5-phenyl-thiophene-2-carboxylic acid] was tested, and the IC50 [1] was 3 to 10 µM.
`CC1CCC(C2=C(c3cc(-c4ccccc4)sc3C(=O)O)CCN(C(=O)c3cn(C)c4ccccc34)C2)CC1` (stereo not drawn) [Example 098, 3-[5-(4-Methyl-cyclohexyl)-1-(1-methyl-1H-indole-3-carbonyl)-1,2,3,6-tetrahydro-pyridin-4-yl]-5-phenyl-thiophene-2-carboxylic acid] was tested, and the IC50 [1] was > 10 µM.
In the case of `CC1CCC(C2=C(c3cc(-c4ccc(NC(=O)c5cscn5)cc4)sc3C(=O)OCOC(=O)OC(C)C)CCN(C)C2)CC1` (stereo not drawn) [Example 106, 3-[1-Methyl-5-(4-methyl-cyclohexyl)-1,2,3,6-tetrahydro-pyridin-4-yl]-5-{4-[(thiazole-4-carbonyl)-amino]-phenyl}-thiophene-2-carboxylic acid isopropoxycarbonyloxymethyl ester], the IC50 [1] is reported as > 10 µM.
`CC1CCC(C2=C(c3cc(I)sc3C(=O)O)CCN(C)C2)CC1` (stereo not drawn) [Example 002, 5-Iodo-3-[1-methyl-5-(4-methyl-cyclohexyl)-1,2,3,6-tetrahydro-pyridin-4-yl]-thiophene-2-carboxylic acid] was tested, and the IC50 [1] was > 10 µM.
`CCN1CCC(c2cc(-c3ccc(NC(=O)c4ccccc4)cc3)sc2C(=O)O)=C(C2CCC(C)CC2)C1` (stereo not drawn) [Example 020, 5-(4-Benzoylamino-phenyl)-3-[1-ethyl-5-(4-methyl-cyclohexyl)-1,2,3,6-tetrahydro-pyridin-4-yl]-thiophene-2-carboxylic acid] showed an IC50 [1] of 3 to 10 µM.
`CC1CCC(C2=C(c3cc(C#CC(C)(C)C)sc3C(=O)O)CN(CCCO)CC2)CC1` (stereo not drawn) [Example 114, 5-(3,3-Dimethyl-but-1-ynyl)-3-[1-(3-hydroxy-propyl)-4-(4-methyl-cyclohexyl)-1,2,5,6-tetrahydro-pyridin-3-yl]-thiophene-2-carboxylic acid] was tested, and the IC50 [1] was < 3 µM.
